The results in this text go back to US5792767A, “Bicyclic substituted hexahydrobenz [e] isoindole alpha-1 adrenergic antagonists” (priority 1995, dated 1998).

Structures are written as SMILES. Where a name gives a salt, the structure may show the parent alone.

T1 sequence (P35348 whole entry): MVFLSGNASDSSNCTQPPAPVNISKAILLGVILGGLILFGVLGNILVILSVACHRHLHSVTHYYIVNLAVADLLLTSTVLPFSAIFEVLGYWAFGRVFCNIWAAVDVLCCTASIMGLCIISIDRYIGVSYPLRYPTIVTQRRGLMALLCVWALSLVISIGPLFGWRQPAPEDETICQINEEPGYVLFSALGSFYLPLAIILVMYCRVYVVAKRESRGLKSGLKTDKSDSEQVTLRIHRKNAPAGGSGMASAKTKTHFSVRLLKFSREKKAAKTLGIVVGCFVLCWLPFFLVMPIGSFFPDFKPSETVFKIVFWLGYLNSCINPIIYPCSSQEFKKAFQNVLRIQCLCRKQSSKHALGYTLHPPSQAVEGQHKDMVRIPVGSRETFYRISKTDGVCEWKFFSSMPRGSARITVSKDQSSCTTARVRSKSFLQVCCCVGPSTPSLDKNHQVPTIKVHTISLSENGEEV

The assay has as its target T1, α-1A adrenoceptor (dog prostate).
T1 construct: from tissue; host or cells: canine prostate strips
The experiment in a line: Functional antagonism of phenylephrine-induced contraction of canine prostate strips. The assay is classed as cell-based, dog (canine). The conditions noted are these: vs phenylephrine-induced contraction, Schild plot; read-out: pA2 Dog Prostate [α-1A] (converted). An excerpt:
Canine prostate strips were used in vitro as previously described (Hieble, J. P., Boyce, A. J. and Caine, M., Fed. Proc., 45: 2609-2614 (1986)), to determine antagonist potencies against phenylephrine-induced contractions.
Functional assays indicative of pharmacologically defined α-1 adrenoceptors were used to further characterize compounds. Inhibition of phenylephrine (PE)-induced contraction of canine prostate smooth muscle can be correlated with α-1A adrenoceptor activation. […] For each of these models, agonist dose response curves were repeated against increasing concentrations of test agent to derive a Schild plot [log ([…]) against log (molarity of test agent)] to determine the pA2.
In the case of `COc1ccc2[nH]c(=O)n(CCN3C[C@@H]4CCc5c(OC)cccc5[C@@H]4C3)c(=O)c2c1` (relative stereo) [Example 17, hydrochloride], the Kb was 1.15 nM.

For `COc1cccc2c1CC[C@H]1CN(CCn3cnc4c(C)c(C)ccc4c3=O)C[C@@H]21` [Example 57, dihydrochloride], the Kb is 7.24 nM.

Turning to `COC(=O)c1cc2[nH]c(=O)n(CCN3C[C@@H]4CCc5c(OC)cccc5[C@@H]4C3)c(=O)c2s1` [Example 60, hydrochloride], the Kb was 0.708 nM.

On to `COc1cccc2c1CC[C@H]1CN(CCn3c(=O)[nH]c4scc(C)c4c3=O)C[C@@H]21` (relative stereo) [Example 4, hydrochloride], for which the Kb was 12.3 nM.

Turning to `COc1cc2[nH]c(=O)n(CCCCN3C[C@@H]4CCc5cccc(OC)c5[C@@H]4C3)c(=O)c2cc1OC` [Example 67, hydrochloride], the Kb was 4.68 nM.

Regarding `COc1cccc2c1CC[C@H]1CN(CCn3c(=O)oc4cc5c(cc4c3=O)OCO5)C[C@@H]21` [Example 55, hydrochloride], the Kb was 4.9 nM.

As for `COc1cccc2c1CC[C@H]1CN(CCn3c(=O)[nH]c4cc(C(=O)N(C)C)ccc4c3=O)C[C@@H]21` [Example 47, 3-[2-((3aR ,9bR)-cis-6-Methoxy-2,3,3a,4,5,9b-hexahydro-[1H]-benz[e]isoindol-1-yl)ethyl]-7-(N,N'-dimethyl)carbamylguinazoline-2,4(1H,3H)-dione hydrochloride], the Kb is 1.62 nM.

As for `COc1cccc2c1CC[C@H]1CN(CCn3c(=O)[nH]c4c(-c5ccccc5C)csc4c3=O)C[C@@H]21` [Example 84, hydrochloride], the Kb is 8.13 nM.

`COc1cccc2c1CC[C@H]1CN(CCn3c(=O)[nH]c4sc(C)cc4c3=O)C[C@@H]21` (relative stereo) [Example 29, hydrochloride]: the Kb is 1.23 nM.

As to `COc1ccc2c(=O)n(CCN3C[C@@H]4CCc5c(OC)cccc5[C@@H]4C3)c(=O)n(C)c2c1` [Example 50, hydrochloride], the Kb is 0.631 nM.

Consider `COC(=O)c1cc2c(=O)n(CCN3C[C@@H]4CCc5c(OC)cccc5[C@@H]4C3)c(=O)[nH]c2s1` [Example 59, hydrochloride], for which the Kb was 3.31 nM.

As to `COc1cccc2c1CC[C@H]1CN(CCn3c(=O)[nH]c4cc5c(cc4c3=O)OCCO5)C[C@@H]21` [Example 38, hydrochloride], the Kb is 0.229 nM.

Consider `COc1cc2c(cc1Cl)c(=O)n(CCN1C[C@@H]3CCc4c(OC)cccc4[C@@H]3C1)c(=O)n2C` [Example 51, hydrochloride], for which the Kb was 14.1 nM.

On to `COc1cccc2c1CC[C@H]1CN(CCn3c(=O)[nH]c4c(Cl)c(OC)c(Cl)cc4c3=O)C[C@@H]21` [Example 48, hydrochloride], for which the Kb was 6.46 nM.

In the case of `COc1cccc2c1CC[C@H]1CN(CCn3c(=O)c4ccccc4n(C)c3=O)C[C@@H]21` (relative stereo) [Example 26, hydrochloride], the Kb was 0.589 nM.

As to `COc1cccc2c1CC[C@H]1CN(CCn3c(=O)[nH]c4c(C)cc(C)cc4c3=O)C[C@@H]21` (relative stereo) [Example 20, hydrochloride], the Kb is 1.48 nM.

For the molecule `COc1cccc2c1CC[C@H]1CN(CCn3c(=O)[nH]c4ccc5c(c4c3=O)OCO5)C[C@@H]21` [Example 53, hydrochloride], the Kb was 1.95 nM.

In the case of `COc1cccc2c1CC[C@H]1CN(CCn3c(=O)[nH]c4ccccc4c3=O)C[C@@H]21` [Example 79, hydrochloride], the Kb is 0.977 nM.

`COc1cccc2c1CC[C@H]1CN(CCn3c(=O)[nH]c4ccc(F)cc4c3=O)C[C@@H]21` (relative stereo) [Example 15, 3-[2-(cis-6-Methoxy-2,3,3a,4,5,9b-hexahydro-[1H]-benz[e]isoindol-1-yl)ethyl]-6-fluoro-quinazoline-2,4(1H,3H)-dione hydrochloride]: the Kb was 5.37 nM.

`COc1cccc2c1CC[C@H]1CN(CCn3c(=O)[nH]c4sc(-c5ccccc5)cc4c3=O)C[C@@H]21` (relative stereo) [Example 7, 3-[2-(cis-6-Methoxy-2,3,3a,4,5,9b-hexahydro-[1H]-benz[e]isoindol-1-yl)ethyl]-6-phenyl-thieno[2,3-d]pyrimidine-2,4(1H,3H)-dione hydrochloride]: the Kb is 24 nM.

For the molecule `COc1cccc2c1CC[C@H]1CN(CCn3c(=O)[nH]c4cc(F)ccc4c3=O)C[C@@H]21` (relative stereo) [Example 25, 3-[2-(cis-6-Methoxy-2,3,3a,4,5,9b-hexahydro-[1H]-benz[e]isoindol-1-yl)ethyl]-7-fluoro-quinazoline-2,4(1H,3H)-dione hydrochloride], the Kb is 0.676 nM.

For the molecule `COc1cccc2c1CC[C@H]1CN(CCn3c(=O)[nH]c4cc(NS(C)(=O)=O)ccc4c3=O)C[C@@H]21` [Example 76, 3-[2-((3aR,9bR)cis-6-Methoxy-2,3,3a,4,5,9b-hexahydro-1WH-benz[e]isoindol-1-yl)lethyl]-7-methanesulfamlquinazoline-2,4(1H,3H)-dione hydrochloride], the Kb is 1.86 nM.

For `COc1cccc2c1CC[C@H]1CN(CCn3c(=O)[nH]c4cccc(Cl)c4c3=O)C[C@@H]21` (relative stereo) [Example 23, hydrochloride], the Kb is 4.79 nM.

As to `COc1cccc2c1CC[C@H]1CN(CCn3c(=O)[nH]c4c(cnn4C)c3=O)C[C@@H]21` (relative stereo) [Example 28, hydrochloride], the Kb was 4.79 nM.

Regarding `CCOC(=O)c1c[nH]c2[nH]c(=O)n(CCN3C[C@@H]4CCc5c(OC)cccc5[C@@H]4C3)c(=O)c12` [Example 61, hydrochloride], the Kb was 2.29 nM.

In the case of `COc1cccc2c1CC[C@H]1CN(CCn3c(=O)[nH]c4c(C)c(C)cnc4c3=O)C[C@@H]21` [Example 66, dihydrochloride], the Kb is 1.15 nM.

Consider `COC(=O)c1ccc2c(=O)n(CCN3C[C@@H]4CCc5c(OC)cccc5[C@@H]4C3)c(=O)[nH]c2c1` [Example 69, hydrochloride], for which the Kb is 0.575 nM.

Regarding `COc1cccc2c1CC[C@H]1CN(CCn3c(=O)[nH]c4ncncc4c3=O)C[C@@H]21` [Example 88, 3-[2-((3aR,9bR)cis-6-Methoxy-2,3,3a,4,5,9b-hexahydro-[1H]-benz[e]isoindol-1-yl)ethyl]-p-rimidino[4,5-d]pyrimidine-2,4(1H,3H)-dione hydrochloride], the Kb was 1.86 nM.
